Data taken from PubChem BioAssay (NCI).
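Step 1: Grow cells in 96-well plates. Step 2: Expose to compound for 48 hours at 5 concentrations. Step 3: Interpolate endpoints linearly; if unreached, use highest concentration. Abbreviation: GI50, concentration required for 50% inhibition of growth. The concentration for full growth arrest is given as TGI.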

Key:
Experiment in all cases: inhibition of tumour cell growth, NCI panel, 48 h
RXF 393 renal = tested on: RXF 393 renal
NCI-H23 lung = tested on: NCI-H23 lung
EKVX NSCLC = tested on: EKVX NSCLC
SF-539 CNS = tested on: SF-539 CNS
NCI-H522 lung = tested on: NCI-H522 lung
RPMI-8226 leukemia = tested on: RPMI-8226 leukemia
MDA-MB-435 = tested on: MDA-MB-435
LOX IMVI melanoma = tested on: LOX IMVI melanoma
OVCAR-4 ovarian = tested on: OVCAR-4 ovarian
CCRF-CEM leukemia = tested on: CCRF-CEM leukemia
PC-3 prostate = tested on: PC-3 prostate
UO-31 renal = tested on: UO-31 renal
SK-MEL-5 melanoma = tested on: SK-MEL-5 melanoma
MOLT-4 leukemia = tested on: MOLT-4 leukemia
UACC-257 melanoma = tested on: UACC-257 melanoma
HCT-15 colon = tested on: HCT-15 colon
NCI-H460 lung = tested on: NCI-H460 lung
HOP-92 NSCLC = tested on: HOP-92 NSCLC
SN12C renal = tested on: SN12C renal
OVCAR-5 ovarian = tested on: OVCAR-5 ovarian
COLO 205 colon = tested on: COLO 205 colon
SF-268 CNS = tested on: SF-268 CNS
786-0 renal = tested on: 786-0 renal
OVCAR-8 ovarian = tested on: OVCAR-8 ovarian
MALME-3M melanoma = tested on: MALME-3M melanoma
BT-549 breast = tested on: BT-549 breast
SNB-75 CNS = tested on: SNB-75 CNS
DU-145 prostate = tested on: DU-145 prostate
HS 578T breast = tested on: HS 578T breast
SR leukemia = tested on: SR leukemia
HT29 colon = tested on: HT29 colon
OVCAR-3 ovarian = tested on: OVCAR-3 ovarian
SK-MEL-2 melanoma = tested on: SK-MEL-2 melanoma
SF-295 CNS = tested on: SF-295 CNS
T-47D breast = tested on: T-47D breast
SK-MEL-28 melanoma = tested on: SK-MEL-28 melanoma
SNB-19 CNS = tested on: SNB-19 CNS
U251 CNS = tested on: U251 CNS
UACC-62 melanoma = tested on: UACC-62 melanoma
A498 renal = tested on: A498 renal
CAKI-1 renal = tested on: CAKI-1 renal
NCI-H226 lung = tested on: NCI-H226 lung
TK-10 renal = tested on: TK-10 renal
SK-OV-3 ovarian = tested on: SK-OV-3 ovarian
KM12 colon = tested on: KM12 colon
HOP-62 NSCLC = tested on: HOP-62 NSCLC
SW-620 colon = tested on: SW-620 colon
IGROV1 ovarian = tested on: IGROV1 ovarian
ACHN renal = tested on: ACHN renal
HCT-116 colon = tested on: HCT-116 colon
NCI/ADR-RES ovarian = tested on: NCI/ADR-RES ovarian
K-562 leukemia = tested on: K-562 leukemia
HCC-2998 colon = tested on: HCC-2998 colon
HL-60(TB) leukemia = tested on: HL-60(TB) leukemia
MCF7 breast = tested on: MCF7 breast
A549 NSCLC = tested on: A549 NSCLC
MDA-MB-231 breast = tested on: MDA-MB-231 breast

CCN(CC)c1ccc2c(cc1=O)[C@@H](NC(C)=O)CCc1cc(OC)c(OC)c(OC)c1-2
GI50 (RXF 393 renal): 381 nM
TGI (RXF 393 renal): > 100000 nM
GI50 (NCI-H23 lung): 578 nM
TGI (NCI-H23 lung): > 100000 nM
GI50 (EKVX NSCLC): 714 nM
TGI (EKVX NSCLC): > 100000 nM
GI50 (SF-539 CNS): 217 nM
GI50 (NCI-H522 lung): 218 nM
TGI (NCI-H522 lung): 579 nM
GI50 (RPMI-8226 leukemia): 288 nM
TGI (RPMI-8226 leukemia): > 100000 nM
GI50 (MDA-MB-435): 59.4 nM
TGI (MDA-MB-435): 305 nM
GI50 (LOX IMVI melanoma): 345 nM
TGI (LOX IMVI melanoma): > 100000 nM
GI50 (OVCAR-4 ovarian): 3320 nM
TGI (OVCAR-4 ovarian): > 100000 nM
GI50 (CCRF-CEM leukemia): 213 nM
TGI (CCRF-CEM leukemia): > 100000 nM
GI50 (PC-3 prostate): 366 nM
TGI (PC-3 prostate): > 100000 nM
GI50 (UO-31 renal): 6720 nM
TGI (UO-31 renal): > 100000 nM
GI50 (SK-MEL-5 melanoma): 302 nM
TGI (SK-MEL-5 melanoma): 1560 nM
GI50 (MOLT-4 leukemia): 511 nM
TGI (MOLT-4 leukemia): > 100000 nM
GI50 (UACC-257 melanoma): > 100000 nM
TGI (UACC-257 melanoma): > 100000 nM
GI50 (HCT-15 colon): 2640 nM
TGI (HCT-15 colon): > 100000 nM
GI50 (NCI-H460 lung): 359 nM
TGI (NCI-H460 lung): > 100000 nM
GI50 (HOP-92 NSCLC): 7110 nM
TGI (HOP-92 NSCLC): > 100000 nM
GI50 (SN12C renal): 691 nM
TGI (SN12C renal): > 100000 nM
GI50 (OVCAR-5 ovarian): 2450 nM
TGI (OVCAR-5 ovarian): > 100000 nM
GI50 (COLO 205 colon): 101 nM
TGI (COLO 205 colon): 500 nM
GI50 (SF-268 CNS): 511 nM
TGI (SF-268 CNS): > 100000 nM
GI50 (786-0 renal): 622 nM
TGI (786-0 renal): > 100000 nM
GI50 (OVCAR-8 ovarian): 467 nM
TGI (OVCAR-8 ovarian): > 100000 nM
GI50 (MALME-3M melanoma): > 100000 nM
TGI (MALME-3M melanoma): > 100000 nM
GI50 (BT-549 breast): 245 nM
TGI (BT-549 breast): 7280 nM
GI50 (SNB-75 CNS): 321 nM
TGI (SNB-75 CNS): > 100000 nM
GI50 (DU-145 prostate): 368 nM
GI50 (HS 578T breast): 648 nM
TGI (HS 578T breast): > 100000 nM
GI50 (SR leukemia): 52.9 nM
TGI (SR leukemia): > 100000 nM
GI50 (HT29 colon): 331 nM
GI50 (OVCAR-3 ovarian): 250 nM
TGI (OVCAR-3 ovarian): 647 nM
GI50 (SK-MEL-2 melanoma): 275 nM
TGI (SK-MEL-2 melanoma): > 100000 nM
GI50 (SF-295 CNS): 277 nM
TGI (SF-295 CNS): > 100000 nM
GI50 (T-47D breast): > 100000 nM
TGI (T-47D breast): > 100000 nM
GI50 (SK-MEL-28 melanoma): > 100000 nM
TGI (SK-MEL-28 melanoma): > 100000 nM
GI50 (SNB-19 CNS): 409 nM
TGI (SNB-19 CNS): > 100000 nM
GI50 (U251 CNS): 407 nM
TGI (U251 CNS): > 100000 nM
GI50 (UACC-62 melanoma): 311 nM
TGI (UACC-62 melanoma): > 100000 nM
GI50 (A498 renal): 260 nM
GI50 (CAKI-1 renal): 4620 nM
TGI (CAKI-1 renal): > 100000 nM
GI50 (NCI-H226 lung): 409 nM
TGI (NCI-H226 lung): > 100000 nM
GI50 (TK-10 renal): 65200 nM
TGI (TK-10 renal): > 100000 nM
GI50 (SK-OV-3 ovarian): 407 nM
TGI (SK-OV-3 ovarian): > 100000 nM
GI50 (KM12 colon): 282 nM
TGI (KM12 colon): > 100000 nM
GI50 (HOP-62 NSCLC): 563 nM
TGI (HOP-62 NSCLC): > 100000 nM
GI50 (SW-620 colon): 287 nM
TGI (SW-620 colon): > 100000 nM
GI50 (IGROV1 ovarian): 510 nM
TGI (IGROV1 ovarian): > 100000 nM
GI50 (ACHN renal): 2620 nM
TGI (ACHN renal): > 100000 nM
GI50 (HCT-116 colon): 205 nM
TGI (HCT-116 colon): > 100000 nM
GI50 (NCI/ADR-RES ovarian): 14300 nM
TGI (NCI/ADR-RES ovarian): > 100000 nM
GI50 (K-562 leukemia): 224 nM
TGI (K-562 leukemia): > 100000 nM
GI50 (HCC-2998 colon): 347 nM
TGI (HCC-2998 colon): > 100000 nM
GI50 (HL-60(TB) leukemia): 63.3 nM
TGI (HL-60(TB) leukemia): 319 nM
GI50 (MCF7 breast): 148 nM
TGI (MCF7 breast): > 100000 nM
GI50 (A549 NSCLC): 744 nM
TGI (A549 NSCLC): > 100000 nM
GI50 (MDA-MB-231 breast): 552 nM
TGI (MDA-MB-231 breast): > 100000 nM
